Experimental findings from patent US9926301B2, “Bipyrazole derivatives as JAK inhibitors” (Incyte Corporation, priority 2013, dated 2018) are described below.

Structures are written as SMILES. pIC50: −log10 of the molar value. Counter-ions that a name gives are not always drawn.

Common to all, as to assay type: biochemical
The target in experiment [1] is human JAK1 (a.a. 837-1142) catalytic domain (Homo sapiens, UniProt P23458). The experiment in a line: In vitro JAK kinase assay (HTRF), JAK1. The settings on record: JAK enzyme assay at 1 mM ATP. As to the method: (§1) The catalytic activity of JAK1, JAK2 or JAK3 was assayed by measuring the phosphorylation of a biotinylated peptide. The phosphorylated peptide was detected by homogenous time resolved fluorescence (HTRF). […] Reactions were carried out at room temperature for 1 hour and then stopped with 20 μL 45 mM EDTA, 300 nM SA-APC, 6 nM Eu-Py20 in assay buffer (Perkin Elmer, Boston, Mass.). Binding to the Europium labeled antibody took place for 40 minutes and HTRF signal was measured on a Fusion plate reader (Perkin Elmer, Boston, Mass.).
(TR-FRET usually uses a lanthanide donor and a delayed reading to cut background.)

The subject of experiment [2] is human JAK1 (a.a. 837-1142) catalytic domain. As to the kind of experiment: In vitro JAK kinase assay (HTRF), JAK1. Conditions: ratio of IC50 values at 1 mM ATP. As to the method: as §1
In experiment [3] the target is human JAK2 (a.a. 828-1132) catalytic domain (Homo sapiens (Human), UniProt O60674). The experiment in a line: In vitro JAK kinase assay (HTRF), JAK2. Conditions: JAK enzyme assay at 1 mM ATP. The procedure:
as §1

human JAK2 (a.a. 828-1132) catalytic domain, sequence (O60674 828-1132): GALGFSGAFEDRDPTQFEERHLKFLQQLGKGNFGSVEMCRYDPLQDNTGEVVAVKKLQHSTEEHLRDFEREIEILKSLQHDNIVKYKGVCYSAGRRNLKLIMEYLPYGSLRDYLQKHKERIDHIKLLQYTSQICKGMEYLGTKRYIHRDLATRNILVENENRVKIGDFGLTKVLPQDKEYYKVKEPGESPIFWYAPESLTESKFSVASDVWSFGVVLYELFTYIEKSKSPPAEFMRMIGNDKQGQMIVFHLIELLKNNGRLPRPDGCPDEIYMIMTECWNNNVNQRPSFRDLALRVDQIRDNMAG

`Cc1n[nH]cc1-c1cnn(C2(CC#N)CN(c3cc(F)c(C(=O)N[C@@H](C)C(F)(F)F)cc3F)C2)c1` [Example 4, 4-[3-(Cyanomethyl)-3-(3′-methyl-1H,1′H-4,4′-bipyrazol-1-yl)azetidin-1-yl]-2,5-difluoro-N-[(1S)-2,2,2-trifluoro-1-methylethyl]benzamide trifluoroacetate] gave a negative-log IC50 (pIC50) in experiment [1] of more than 6.52.

As for `Cc1n[nH]cc1-c1cnn(C2(CC#N)CN(c3cnc(C(=O)NC(C)C)cn3)C2)c1` [Example 2, 5-[3-(Cyanomethyl)-3-(3′-methyl-1H,1′H-4,4′-bipyrazol-1-yl)azetidin-1-yl]-N-isopropylpyrazine-2-carboxamide trifluoroacetate], the JAK2/JAK1 in experiment [2] is given as more than 10. The pIC50 in experiment [1] was more than 6.52; in experiment [3], 6.00 to 6.52.

Regarding `Cc1n[nH]c(C)c1-c1cnn(C2(CC#N)CN(c3cnc(C(=O)N[C@@H](C)C(F)(F)F)cn3)C2)c1` [Example 9, 5-[3-(Cyanomethyl)-3-(3′,5′-dimethyl-1H,1′H-4,4′-bipyrazol-1-yl)azetidin-1-yl]-N-[(1S)-2,2,2-trifluoro-1-methylethyl]pyrazine-2-carboxamide trifluoroacetate], the JAK2/JAK1 in experiment [2] was more than 10. The pIC50 in experiment [1] is more than 6.52; in experiment [3], 6.00 to 6.52.

Consider `Cc1n[nH]cc1-c1cnn(C2(CC#N)CN(c3ccc(C(=O)NC(C)C)cc3)C2)c1` [Example 3, 4-[3-(Cyanomethyl)-3-(3′-methyl-1H,1′H-4,4′-bipyrazol-1-yl)azetidin-1-yl]-N-isopropylbenzamide trifluoroacetate], for which the JAK2/JAK1 in experiment [2] is on record as more than 10. The negative logarithm of the IC50 (pIC50) in experiment [1] is more than 6.52; in experiment [3] it was less than 6.00.

In the case of `Cc1n[nH]cc1-c1cn(C2(CC#N)CN(c3cc(F)c(C(=O)N[C@@H](C)C(F)(F)F)cc3F)C2)nc1CO` [Example 13, 4-{3-(Cyanomethyl)-3-[3-(hydroxymethyl)-3′-methyl-1H,1′H-4,4′-bipyrazol-1-yl]azetidin-1-yl}-2,5-difluoro-N-[(1S)-2,2,2-trifluoro-1-methylethyl]benzamide], the JAK2/JAK1 in experiment [2] was more than 10. The figures for the pIC50 in experiment [1] and in experiment [3] were more than 6.52 and less than 6.00, respectively.

As for `CCc1n[nH]cc1-c1cnn(C2(CC#N)CN(c3cnc(C(=O)N[C@@H](C)C(F)(F)F)cn3)C2)c1` [Example 11, 5-[3-(Cyanomethyl)-3-(3′-ethyl-1H,1′H-4,4′-bipyrazol-1-yl)azetidin-1-yl]-N-[(1S)-2,2,2-trifluoro-1-methylethyl]pyrazine-2-carboxamide trifluoroacetate], the pIC50 is 6.00 to 6.52 in experiment [1] and less than 6.00 in experiment [3].

For the compound `Cc1n[nH]cc1-c1cn(C2(CC#N)CN(c3cnc(C(=O)NC(C)C)cn3)C2)nc1C` [Example 6, 5-[3-(Cyanomethyl)-3-(3,3′-dimethyl-1H,1′H-4,4′-bipyrazol-1-yl)azetidin-1-yl]-N-isopropylpyrazine-2-carboxamide trifluoroacetate], the JAK2/JAK1 in experiment [2] is reported as more than 10. Besides, the pIC50 is more than 6.52 in experiment [1] and less than 6.00 in experiment [3].

Turning to `Cc1n[nH]c(C)c1-c1cnn(C2(CC#N)CN(c3cnc(C(=O)NC(C)C)cn3)C2)c1` [Example 8, 5-[3-(Cyanomethyl)-3-(3′,5′-dimethyl-1H,1′H-4,4′-bipyrazol-1-yl)azetidin-1-yl]-N-isopropylpyrazine-2-carboxamide], the pIC50 in experiment [1] is more than 6.52.

Turning to `C[C@H](NC(=O)c1cc(F)c(N2CC(CC#N)(n3cc(-c4cn[nH]c4)cn3)C2)cc1F)C(F)(F)F` [Example 5, 4-[3-(1H,1′H-4,4′-Bipyrazol-1-yl)-3-(cyanomethyl)azetidin-1-yl]-2,5-difluoro-N-[(1S)-2,2,2-trifluoro-1-methylethyl]benzamide trifluoroacetate], the JAK2/JAK1 in experiment [2] was more than 10. In addition, the pIC50 in experiment [1] is 6.00 to 6.52; in experiment [3] it was less than 6.00.

Take `Cc1[nH]ncc1-c1cnn(C2(CC#N)CN(c3cnc(C(=O)N[C@@H](C)C(F)(F)F)cn3)C2)c1` [Example 1, 5-[3-(Cyanomethyl)-3-(3′-methyl-1H,1′H-4,4′-bipyrazol-1-yl)azetidin-1-yl]-N-[(1S)-2,2,2-trifluoro-1-methylethyl]pyrazine-2-carboxamide trifluoroacetate]: the JAK2/JAK1 in experiment [2] is recorded as more than 10. Moreover, the figures for the pIC50 in experiment [1] and in experiment [3] were more than 6.52 and less than 6.15, respectively.

`Cc1nn(C2(CC#N)CN(c3cnc(C(=O)NC(C)C)cn3)C2)cc1-c1cn[nH]c1` [Example 10, 5-[3-(Cyanomethyl)-3-(3-methyl-1H,1′H-4,4′-bipyrazol-1-yl)azetidin-1-yl]-N-isopropylpyrazine-2-carboxamide trifluoroacetate]: the pIC50 in experiment [1] is 6.00 to 6.52; in experiment [3], less than 6.00.

On to `C[C@H](NC(=O)c1cc(F)c(N2CC(CC#N)(n3cc(-c4c[nH]nc4CO)cn3)C2)cc1F)C(F)(F)F` [Example 12, 4-{3-(Cyanomethyl)-3-[3′-(hydroxymethyl)-1H,1′H-4,4′-bipyrazol-1-yl]azetidin-1-yl}-2,5-difluoro-N-[(1S)-2,2,2-trifluoro-1-methylethyl]benzamide trifluoroacetate], for which the pIC50 in experiment [1] is 6.00 to 6.52; in experiment [3] it was less than 6.00.

The pIC50 is the negative decadic logarithm of the IC50, by convention in mol/L. Low readings indicate a high IC50, high ones a low IC50.
